Measured values taken from US20250230193A1, “CYCLIC COMPOUND HAVING SELECTIVE KRAS INHIBITORY EFFECT ON HRAS AND NRAS” (CHUGAI SEIYAKU KABUSHIKI KAISHA, priority 2022, published 2025).

Experiments:
[1] = target: GDP-bound NRAS wild-type protein (Homo sapiens, UniProt P01111); assay: Binding to NRAS by surface plasmon resonance (SPR), Single Cycle Kinetics; conditions: KD ratio NRAS/KRAS, SPR, GDP-bound wild-type proteins
[2] = target: GDP-bound HRAS wild-type protein (Homo sapiens, UniProt P01112); assay: Binding to HRAS by surface plasmon resonance (SPR), Single Cycle Kinetics; conditions: KD ratio HRAS/KRAS, SPR, GDP-bound wild-type proteins
Sequence of GDP-bound HRAS wild-type protein (P01112 whole entry): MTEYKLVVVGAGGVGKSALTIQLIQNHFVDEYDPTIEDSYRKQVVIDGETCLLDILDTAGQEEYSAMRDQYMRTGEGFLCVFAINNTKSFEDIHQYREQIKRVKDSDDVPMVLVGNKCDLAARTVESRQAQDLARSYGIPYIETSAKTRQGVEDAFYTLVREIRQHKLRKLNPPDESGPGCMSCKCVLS

Sequence of GDP-bound NRAS wild-type protein (P01111 whole entry): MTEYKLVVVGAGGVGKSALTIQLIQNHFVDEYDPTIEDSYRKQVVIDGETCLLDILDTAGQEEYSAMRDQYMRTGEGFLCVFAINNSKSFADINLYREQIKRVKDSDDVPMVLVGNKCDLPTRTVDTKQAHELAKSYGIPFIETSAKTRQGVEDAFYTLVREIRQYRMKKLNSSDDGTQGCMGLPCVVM

SMILES	NRAS/KRAS (ratio of KD value with respect to GDP-bound NRAS wild-type protein to KD value with respect to KRAS) [1]	HRAS/KRAS (ratio of KD value with respect to GDP-bound HRAS wild-type protein to KD value with respect to KRAS) [2]
CCCO[C@@H]1C[C@H]2C(=O)NC3(CC(C)(C)C3)C(=O)N(C)[C@@H](C3CCCC3)C(=O)N(C)[C@H](C(=O)N(C)CC)CC(=O)N(C)[C@H]3CCCc4ccc(cc4)C[C@@H](C(=O)N(C)CC(=O)N[C@@H](CCc4ccc(C(F)(F)F)c(OC)c4)C(=O)N2C1)N1CC/C=C\C[C@@H](C1=O)N(C)C(=O)CN(C1CC1)C(=O)[C@H]([C@@H](C)CC)NC3=O [PP3088]	B (a compound having 3 or more and less than 10 is denoted as B)	B (a compound having 3 or more and less than 10 is denoted as B)
CCCO[C@@H]1C[C@H]2C(=O)NC3(CC(C)(C)C3)C(=O)N(C)[C@@H](C3CCCC3)C(=O)N(C)[C@H](C(=O)N(C)CC)CC(=O)N(C)[C@H]3CCCc4ccc(cc4)C[C@@H](C(=O)N(C)CC(=O)N[C@@H](CCc4ccc(Cl)c(Cl)c4)C(=O)N2C1)N1CC/C=C\C[C@@H](C1=O)N(C)C(=O)CN(C)C(=O)[C@H]([C@@H](C)CC)NC3=O [PP3089]	B (a compound having 3 or more and less than 10 is denoted as B)	B (a compound having 3 or more and less than 10 is denoted as B)
CCO[C@@H]1C[C@H]2C(=O)N(C)C3(CC(C)(C)C3)C(=O)N(C)[C@@H](C3CCCC3)C(=O)N(C)[C@H](C(=O)N(C)C)CC(=O)N(C)[C@H]3CCCCCCc4ccc(cc4)C[C@@H](C(=O)N(C)CC(=O)N[C@@H](CCc4ccc(C(F)(F)F)c(OC)c4)C(=O)N2C1)N1CC/C=C\C[C@@H](C1=O)N(C)C(=O)CN(C)C(=O)[C@H]([C@@H](C)CC)NC3=O [PP3090]	A (a compound having 10 or more and less than 20 is denoted as A)	B (a compound having 3 or more and less than 10 is denoted as B)
CCO[C@@H]1C[C@H]2C(=O)N(C)C3(CC(C)(C)C3)C(=O)N(C)[C@@H](C3CCCC3)C(=O)N(C)[C@H](C(=O)N(C)C)CC(=O)N(C)[C@H]3CCCCCc4ccc(cc4)C[C@@H](C(=O)N(C)CC(=O)N[C@@H](CCc4ccc(C(F)(F)F)c(OC)c4)C(=O)N2C1)N1CC/C=C\C[C@@H](C1=O)N(C)C(=O)CN(C)C(=O)[C@H]([C@@H](C)CC)NC3=O [PP3091]	A (a compound having 10 or more and less than 20 is denoted as A)	B (a compound having 3 or more and less than 10 is denoted as B)
CCCO[C@@H]1C[C@H]2C(=O)NC3(CC(C)(C)C3)C(=O)N(C)[C@@H](C3CCCC3)C(=O)N(C)[C@H](C(=O)N(C)C)CC(=O)N(C)[C@H]3CCCCc4ccc(cc4)C[C@@H](C(=O)N(C)CC(=O)N[C@@H](CCc4ccc(Cl)c(Cl)c4)C(=O)N2C1)N1CC/C=C\C[C@@H](C1=O)N(C)C(=O)CN(C)C(=O)[C@H]([C@@H](C)CC)NC3=O [PP3092]	A (a compound having 10 or more and less than 20 is denoted as A)	A (a compound having 10 or more and less than 20 is denoted as A)
CCCO[C@@H]1C[C@H]2C(=O)NC3(CC(C)(C)C3)C(=O)N(C)[C@@H](C3CCCC3)C(=O)N(C)[C@H](C(=O)N3CCCC3)CC(=O)N(C)[C@H]3CCCCc4ccc(cc4)C[C@@H](C(=O)N(C)CC(=O)N[C@@H](CCc4ccc(C(F)(F)F)c(OC)c4)C(=O)N2C1)N1CC/C=C\C[C@@H](C1=O)N(C)C(=O)CN(C)C(=O)[C@H]([C@@H](C)CC)NC3=O [PP3094, (1S,7S,11R,13S,19S,22S,26S,29S,35S,37Z)-19-cyclopentyl-7-[2-[3-methoxy-4-(trifluoromethyl)phenyl]ethyl]-3,3′,3′,18,21,25,31,34-octamethyl-29-[(1S)-1-methylpropyl]-11-propoxy-22-(pyrrolidine-1-carbonyl)spiro[3,6,9,15,18,21,25,28,31,34,41-undecazapentacyclo[24.15.9.2^43,46.1^35,41.0^9,13]tripentaconta-37,43(52),44,46(51)-tetraene-16,1′-cyclobutane]-2,5,8,14,17,20,24,27,30,33,53-undecone]	A (a compound having 10 or more and less than 20 is denoted as A)	B (a compound having 3 or more and less than 10 is denoted as B)
CCC[C@H]1C(=O)N[C@@H]([C@@H](C)CC)C(=O)N(C2CC2)CC(=O)N(C)[C@H]2C/C=C\CCN(C2=O)[C@@H](Cc2ccc(C(F)(F)F)cc2)C(=O)N(C)CC(=O)N[C@@H](CCc2ccc(C(F)(F)F)c(OC)c2)C(=O)N2C[C@H](OCC)C[C@H]2C(=O)N(C)C2(CCC2)C(=O)N(C)[C@@H](C2CCCC2)C(=O)N(C)[C@H](C(=O)N2CCCCC2)CC(=O)N1C [PP3095, (2S,8S,12R,14S,20S,23S,27S,30S,36S,38Z)-20-cyclopentyl-32-cyclopropyl-12-ethoxy-8-[2-[3-methoxy-4-(trifluoromethyl)phenyl]ethyl]-4,16,19,22,26,35-hexamethyl-30-[(1S)-1-methylpropyl]-23-(piperidine-1-carbonyl)-27-propyl-2-[[4-(trifluoromethyl)phenyl]methyl]spiro[1,4,7,10,16,19,22,26,29,32,35-undecazatricyclo[34.5.1.0^10,14]dotetracont-38-ene-17,1′-cyclobutane]-3,6,9,15,18,21,25,28,31,34,42-undecone]	A (a compound having 10 or more and less than 20 is denoted as A)	A (a compound having 10 or more and less than 20 is denoted as A)
CCC[C@H]1C(=O)N[C@@H]([C@@H](C)CC)C(=O)N(C2CC2)CC(=O)N(C)[C@H]2C/C=C\CCN(C2=O)[C@@H](Cc2ccc(C(F)(F)F)cc2)C(=O)N(C)CC(=O)N[C@@H](CCc2ccc(C(F)(F)F)c(OC)c2)C(=O)N2C[C@H](OCC)C[C@H]2C(=O)N(C)C2(CCC2)C(=O)N(C)[C@@H](C2CCCC2)C(=O)N(C)[C@H](C(=O)N2CCCC2)CC(=O)N1C [PP3097]	A (a compound having 10 or more and less than 20 is denoted as A)	A (a compound having 10 or more and less than 20 is denoted as A)
CCC[C@H]1C(=O)N[C@@H]([C@@H](C)CC)C(=O)N(C2CC2)CC(=O)N(C)[C@H]2C/C=C\CCN(C2=O)[C@@H](Cc2ccc(C)cc2)C(=O)N(C)CC(=O)N[C@@H](CCc2ccc(C(F)(F)F)c(OC)c2)C(=O)N2C[C@H](OCC)C[C@H]2C(=O)N(C)C2(CCC2)C(=O)N(C)[C@@H](C2CCCC2)C(=O)N(C)[C@H](C(=O)N2CCCC2)CC(=O)N1C [PP3098, (2S,8S,12R,14S,20S,23S,27S,30S,36S,38Z)-20-cyclopentyl-32-cyclopropyl-12-ethoxy-8-[2-[3-methoxy-4-(trifluoromethyl)phenyl]ethyl]-4,16,19,22,26,35-hexamethyl-30-[(1S)-1-methylpropyl]-27-propyl-2-(p-tolylmethyl)-23-(pyrrolidine-1-carbonyl)spiro[1,4,7,10,16,19,22,26,29,32,35-undecazatricyclo[34.5.1.0^10,14]dotetracont-38-ene-17,1′-cyclobutane]-3,6,9,15,18,21,25,28,31,34,42-undecone]	A (a compound having 10 or more and less than 20 is denoted as A)	A (a compound having 10 or more and less than 20 is denoted as A)
CCC[C@H]1C(=O)N[C@@H]([C@@H](C)CC)C(=O)N2CCC[C@H]2C(=O)N(C)[C@H]2C/C=C\CCN(C2=O)[C@@H](Cc2ccc(C(F)(F)F)cc2)C(=O)N(C)CC(=O)N[C@@H](CCc2ccc(C(F)(F)F)c(OC)c2)C(=O)N2C[C@H](OCC)C[C@H]2C(=O)N(C)C2(CCC2)C(=O)N(C)[C@@H](C2CCCC2)C(=O)N(C)[C@H](C(=O)N2CCCCC2)CC(=O)N1C [PP3099]	A (a compound having 10 or more and less than 20 is denoted as A)	A (a compound having 10 or more and less than 20 is denoted as A)
CCC[C@H]1C(=O)N[C@@H]([C@@H](C)CC)C(=O)N2CCC[C@H]2C(=O)N(C)[C@H]2C/C=C\CCN(C2=O)[C@@H](Cc2ccc(C)cc2)C(=O)N(C)CC(=O)N[C@@H](CCc2ccc(C(F)(F)F)c(OC)c2)C(=O)N2C[C@H](OCC)C[C@H]2C(=O)N(C)C2(CCC2)C(=O)N(C)[C@@H](C2CCCC2)C(=O)N(C)[C@H](C(=O)N2CCCCC2)CC(=O)N1C [PP3100, (1S,4S,10S,13S,17S,20S,26S,28R,32S,38S,42Z)-20-cyclopentyl-28-ethoxy-32-[2-[3-methoxy-4-(trifluoromethyl)phenyl]ethyl]-2,14,18,21,24,36-hexamethyl-10-[(1S)-1-methylpropyl]-17-(piperidine-1-carbonyl)-13-propyl-38-(p-tolylmethyl)spiro[2,8,11,14,18,21,24,30,33,36,39-undecazatetracyclo[37.5.1.0^4,8.0^26,30]pentatetracont-42-ene-23,1′-cyclobutane]-3,9,12,15,19,22,25,31,34,37,45-undecone]	A (a compound having 10 or more and less than 20 is denoted as A)	B (a compound having 3 or more and less than 10 is denoted as B)
CCC[C@H]1C(=O)N[C@@H]([C@@H](C)CC)C(=O)N2CCC[C@H]2C(=O)N(C)[C@H]2C/C=C\CCN(C2=O)[C@@H](Cc2ccc(C(F)(F)F)cc2)C(=O)N(C)CC(=O)N[C@@H](CCc2ccc(C(F)(F)F)c(OC)c2)C(=O)N2C[C@H](OCC)C[C@H]2C(=O)N(C)C2(CCC2)C(=O)N(C)[C@@H](C2CCCC2)C(=O)N(C)[C@H](C(=O)N2CCCC2)CC(=O)N1C [PP3101]	A (a compound having 10 or more and less than 20 is denoted as A)	A (a compound having 10 or more and less than 20 is denoted as A)
